Measurements: PubChem BioAssay AID624344 (Sanford-Burnham Center for Chemical Genomics, 2012)
The source made the active and inactive calls. No rule for the calls is given here.

How the values were obtained:
Cytotoxicity = experiment: NFkB reporter suppression in cystic fibrosis bronchial cells – cell-based, uHTS hits, panel, cytotoxicity readout, dose response (AID 624344); conditions: CF bronchial epithelial cells, mean of runs
[1] = as above; conditions: CF bronchial epithelial cells, PAF-induced NFkB reporter inhibition; with PAF, mean of runs

Structure (SMILES) | IC50 (Cytotoxicity) | IC50 [1]
COc1cc2c(c(OC)c1O)-c1ccc(OC)c(=O)cc1C(NC(=O)C(F)(F)F)CC2 (stereo not given) | > 79 µM (inactive) | > 79 µM (inactive)
O=C(c1[nH]c(C(F)(F)F)nc1-c1ccccc1)N1CCN(c2c(Cl)cncc2Cl)CC1 | > 79 µM (inactive) | 10.4 µM
Cc1ccc(-c2cc(C(=O)N/N=C/c3c(C)nn(-c4ccccc4)c3C)[nH]n2)cc1 | > 79 µM (inactive) | inactive
ON=C1c2ccccc2-c2ccccc21 | 63 µM (inactive) | 19.5 µM
COc1ccc(-n2c(C)c(C(C)=O)c3cc(O)ccc32)cc1 | > 79 µM (inactive) | 0.308 µM
CCOC(=O)c1c(C)[nH]c(C(=O)N/N=C/c2ccc(Br)cc2)c1C | 45.9 µM | 14.6 µM
Cc1cccc(N(Cc2cc(=O)[nH]c3ccccc23)C(=O)CCl)c1 | 2 µM | 1.23 µM
Cc1nc([N+](=O)[O-])c(Sc2nc3ccc([N+](=O)[O-])cc3[nH]2)n1Cc1ccccc1 | 8.03 µM | 3.5 µM
CC1(O)CC(c2ccc(Cl)cc2)=NN1C(=O)c1ccc(Cl)cc1 (stereo not given) | 14 µM | 5.49 µM
C=Cc1ccc(CC2(C)C(=O)Nc3ccc(-c4cccnc4)cc32)cc1 (stereo not given) | 41.9 µM | 3.36 µM
CC(=O)c1c(O)cc(O)c(C(C)=O)c1O | 5.8 µM | 5.34 µM
CC(C)C[C@@H](CN1CCC[C@@H]1CN1C(=S)NC[C@@H]1Cc1ccc(O)cc1)N1C[C@H](Cc2ccc(O)cc2)N(CC2CCCCC2)C1=S | 18.8 µM | 17 µM
Fc1ccccc1-c1csc(=Nc2cccnc2)n1CCCn1ccnc1 | 48.4 µM | 5.92 µM
COc1ccc2[nH]c3c(c2c1)CCN1C(=O)C(CC(=O)NCCC2=CCCCC2)C[C@H](C(=O)N2CCCCC2)[C@@]31CCc1ccccc1 (stereo not given in full) | 44.1 µM | 8.09 µM
O=C(COC(=O)c1ccccc1C(=O)c1ccc(Cl)c([N+](=O)[O-])c1)NC1CCCCCC1 | 5.03 µM | 1.6 µM
CN(C)c1ccc(-c2nn3c(-c4ccccc4Cl)nnc3s2)cc1 | > 79 µM (inactive) | 19.2 µM
Cc1c(C=O)c(C=O)c(C)n1Cc1ccccc1 | 4.67 µM | 1.64 µM
CCN1CCN(Cc2ccc(NC(=O)c3ccc(C)c(NC(=O)c4ccno4)c3)cc2C(F)(F)F)CC1 | > 79 µM (inactive) | < 0.15 µM
Cc1ccc(CNc2ncnc(N)c2[N+](=O)[O-])cc1 | 73.3 µM (inactive) | 6.41 µM
Cc1cc(C)c(O)c(CN(C)Cc2cc(Cl)cc(Cl)c2O)c1 | 9.57 µM | 4.39 µM
CCOC(=O)[C@@H]1[C@H]2COc3ccc(Br)cc3[C@H]2N2C(=O)N(c3ccc(C)cc3)C(=O)[C@]12C | > 79 µM (inactive) | > 79 µM (inactive)
COc1ccc(-c2cn[nH]c2-c2ccc(O)cc2O)cc1 | > 79 µM (inactive) | 1.76 µM
COc1ccc(-c2nc(NC(=O)c3ccc(OCC(=O)Nc4ccc(F)cc4)c(OC)c3)sc2C)cc1 | 16.6 µM | 4.72 µM
Cc1c(-c2ccccc2)oc2c(C(=O)N3CCN(c4ccc([N+](=O)[O-])cc4)CC3)cccc2c1=O | > 79 µM (inactive) | 0.854 µM
NC(=O)c1c(Br)n(C2OC(CO)C(O)C2O)c2ncnc(N)c12 (stereo not given) | 3.07 µM | 2.03 µM
COc1ccc(Nc2nc(-c3cccs3)nc3ccccc23)cc1S(=O)(=O)N1CCOCC1 | 8.98 µM | 3.78 µM
O=C(NCCc1ccc(F)cc1)c1coc(=O)c(Br)c1 | 21.2 µM | 4.34 µM

Structure (SMILES) | IC50 (Cytotoxicity) | IC50 [1]
O=C(NCc1nc(-c2ccc(C(F)(F)F)cc2)no1)Nc1cc(Cl)cc(Cl)c1 | 5.56 µM | 5.81 µM
CCN1CCN(Cc2ccc(NC(=O)c3ccc(C)c(NC(=O)C(=O)c4c[nH]c5ccccc45)c3)cc2C(F)(F)F)CC1 | 10.4 µM | 1.27 µM
COc1cccc(-c2ccc3ncnc(NCc4ccc5c(c4)OCO5)c3c2)c1 | 18.1 µM | 1.61 µM
COc1ccc2c(c1OC)C(=O)N1c3ccccc3C(=O)N(c3ccccc3)C21 (stereo not given) | 2.94 µM | 0.902 µM
COc1ccccc1[C@]1(C)ON(c2ccccc2C(F)(F)F)C1=O | 66.9 µM (inactive) | 4.14 µM
Cc1cnc(C=O)c2cccc([N+](=O)[O-])c12 | 60.6 µM (inactive) | 3.35 µM
CC(=O)Nc1ccc(NC(=O)C(C)OC(=O)c2ccccc2C(=O)c2ccc(Cl)c([N+](=O)[O-])c2)cc1 (stereo not given) | 45.2 µM | 15.3 µM
Cn1c(SC2=CS(=O)(=O)c3ccccc32)nc2ccccc21 | 7.01 µM | 1.83 µM
COc1ccc2[nH]c(=O)c3c(c2c1)OC(C)(C)C=C3 | 19.8 µM | 1.67 µM
C=C(C)COc1ccc(-c2[nH]ncc2-c2ccc(OC)cc2)c(O)c1 | 24 µM | 5.07 µM
O=S(=O)(Nc1nc2ccccc2nc1N1CCN(c2ccccc2F)CC1)c1ccc(Cl)cc1 | 10.5 µM | 5.66 µM
O=C(/C=C/c1cccc([N+](=O)[O-])c1)NC(=S)Nc1ccc(CN2CCOCC2)cc1 | 19.8 µM | 5.19 µM
Cn1c(Sc2ccc(Br)cc2)c(C=O)c2ccccc21 | 5.64 µM | 1.4 µM
C[C@@H]1CC=C[C@H]2[C@H]1C(=O)N(Cc1ccccc1)[C@H]2c1ccc2ccccc2c1Br | 12.9 µM | 5.04 µM
CC(C)(C)OC(=O)NCC(=O)Oc1cc2oc(=O)cc(-c3ccccc3)c2cc1Cl | 15.3 µM | 1.2 µM
Clc1ccc(-c2csc3ncnc(N4CCc5ccccc5C4)c23)cc1 | 19.2 µM | 3.99 µM
CCOc1ccc(-n2cc(-c3ccccc3)c3c(N4CCOCC4)ncnc32)cc1 | 7.28 µM | 3.99 µM
CCOc1cc(Br)c(Br)c(C=Nc2ccc(NC(C)=O)cc2)c1O | > 79 µM (inactive) | 3.91 µM
CCOC(=O)COc1ccc2ccccc2c1/C=C/[N+](=O)[O-] | 4.6 µM | 8.1 µM
CCSc1nsc(NC(=O)Nc2cccc(C(C)=O)c2)n1 | 36.5 µM | 2.24 µM
COc1ccccc1NC(=O)c1cc2c(CO)cnc(C)c2oc1=Nc1ccc(OC)c(OC)c1 | 12.2 µM | 9.49 µM
O=[N+]([O-])c1cccc(NC(=S)Nc2nc(-c3ccccc3Cl)cs2)c1 | 10.1 µM | 6.59 µM
COc1ccc(-n2nc(C(=O)NCC(=O)Nc3cc(OC)c(OC)c(OC)c3)c3ccccc3c2=O)cc1Cl | 23.1 µM | 1.61 µM
CCC(Oc1ccccc1)C(=O)Nc1ncc([N+](=O)[O-])s1 (stereo not given) | 31 µM | 9.05 µM
CCCCN(c1ccccc1)c1ncnc(N)c1[N+](=O)[O-] | > 79 µM (inactive) | 1.08 µM
COCCN1Cc2cccc(C(=O)Nc3cccc(-c4nc5ccccc5[nH]4)c3)c2C1=O | 11.1 µM | 7.9 µM
CCOC(=O)Cc1nnc2c(Nc3ccc(Cl)cc3)nc3nonc3n12 | 1.72 µM | 3.23 µM

Structure (SMILES) | IC50 (Cytotoxicity) | IC50 [1]
COc1ccccc1NS(=O)(=O)c1ccc(-c2cnc(C3CC3)o2)cc1 | > 79 µM (inactive) | 16.7 µM
O=C(Nc1cccnc1)c1sc2cccc(F)c2c1Cl | 43 µM | 12.1 µM
C=C(C)[C@@H]1CCC2(C(=O)O)CC[C@]3(C)[C@H](CC[C@@H]4[C@@]5(C)CCC(=O)C(C)(C)[C@@H]5CC[C@]43C)[C@@H]12 (stereo not given in full) | 12.9 µM | 8.27 µM
CC(C)n1c(SCc2ccccc2F)nc2c1c(=O)n(C)c(=O)n2C | > 79 µM (inactive) | 7.01 µM
C=C1C(=O)[C@]23C[C@H]1CC[C@H]2[C@]1(C)[C@@H](O)CC[C@@](C)(C(=O)O)[C@H]1C[C@@H]3O | 12.5 µM | 2.04 µM
COc1ccc(-c2ccccc2[C@H]2[C@@H]3C=CC[C@@H](C)[C@@H]3C(=O)N2Cc2ccccc2)cc1 | 19.6 µM | 13.6 µM
O=[N+]([O-])c1ccc2ncnc(N3CCN(Cc4ccc5c(c4)OCO5)CC3)c2c1 | > 79 µM (inactive) | 2.62 µM
CC(=O)c1ccc(Nc2ncnc3ccc(Br)cc23)cc1 | 37 µM | 2.18 µM
N=C1N(c2ccccc2)C(=S)C(=Nc2ccccc2)N1c1ccccc1 | 33 µM | 14.7 µM
COc1ccc(S(=O)(=O)N2c3ccc(F)cc3CCC2C)cc1 (stereo not given) | > 79 µM (inactive) | inactive
COc1ccc(-n2nnnc2S(=O)(=O)Cc2ccc(C(=O)O)cc2)cc1 | 3.16 µM | 1.05 µM
O=C(Nc1ccc2ccccc2c1)c1ccccc1O | 2.5 µM | 5.07 µM
CN(C)c1ccc(Nc2ncnc3ccc(Br)cc23)cc1 | 15.9 µM | 1.66 µM
COc1ccc2c(c1OC)C(=O)OC2Nc1nc(-c2ccccc2)cs1 (stereo not given) | 32.7 µM | 0.66 µM
C[C@@H]1CN([C@H](C)CO)C(=O)c2cc(NC(=O)Nc3ccc(C(F)(F)F)cc3)ccc2O[C@H]1CN(C)S(=O)(=O)c1ccc(Cl)cc1 | > 79 µM (inactive) | 14.1 µM
COc1ccc(-c2cnc(N)nc2-c2ccc(OC)cc2O)cc1 | 36.5 µM | 4.66 µM
COc1ccc(NC(=O)Cn2ncn3nc(-c4ccc(OC)cc4)cc3c2=O)cc1 | 5.34 µM | 6.69 µM
O=c1c(O)c(-c2ccccc2)oc2cc(O)cc(O)c12 | 54 µM (inactive) | 3.27 µM
CCOc1cc2c(cc1O)C(=NO)CC1C2CCC2(C)C(O)CCC12 (stereo not given) | 31 µM | 17.5 µM
c1cc(-c2cnc3cccnn23)c2cccnc2c1 | > 79 µM (inactive) | 2.33 µM
O=C(Nc1cccc2[nH]ncc12)c1ccc(F)cc1 | > 79 µM (inactive) | 1.06 µM
Oc1ccc(CCNc2ncnc3ccc(Cl)cc23)cc1 | 40.6 µM | 0.831 µM
CN(c1ncnc(N)c1[N+](=O)[O-])C1CCS(=O)(=O)C1 (stereo not given) | > 79 µM (inactive) | 2.79 µM
Cc1ccc(N(C)C(=O)c2cc(S(=O)(=O)N3CCCCC3)c[nH]2)cc1 | > 79 µM (inactive) | 11.5 µM
O=C(OC1CCOC1=O)c1ccccc1C(=O)c1ccc(Cl)c([N+](=O)[O-])c1 (stereo not given) | 7.46 µM | 4.44 µM
Cc1[nH]nc2ncc(C(=O)c3ccccc3O)cc12 | 24.3 µM | 1.68 µM
